Data published in patent EP1724268A1, “COMPOUND HAVING TGF-BETA INHIBITORY ACTIVITY AND PHARMACEUTICAL COMPOSITION CONTAINING SAME” (KIRIN BEER KABUSHIKI KAISHA, priority 2004, dated 2005).
Where two headings read alike, the source gives them in different places.

Test system: TGFβ signal
Assay: TGFβ signal inhibitory activity, (SBE)4-Luc reporter in A549 cells (Test Examples 1A and 1B)
Assay type: cell-based, human
Conditions: Homo sapiens, A549, read-out: TGFβ inhibition rate, %
Summary of the method: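 Compounds at 3 µM and 10 µM (some 1 µM) were added with 2 ng/ml TGFβ-1 to A549 cells stably expressing an SBE-driven luciferase, then cultured 4 hr. Chemiluminescent luciferase signal gave % inhibition versus TGFβ-alone and no-TGFβ controls.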

[1] = test compound 3 µM, TGFβ-1 2 ng/ml, 4 hr, Table 1A
[2] = 3 µM, compounds of Reference Examples (Test Example 1B)
[3] = 10 µM, compounds of Reference Examples (Test Example 1B)
[4] = test compound 10 µM, TGFβ-1 2 ng/ml, 4 hr, Table 1A
[5] = test compound 3 µM, Reference Examples, Table 1B
[6] = test compound 10 µM, Reference Examples, Table 1B

SMILES | inhibition at 3 µM [2] | inhibition at 10 µM [3] | further results
COc1cc2nccc(Oc3cc(C)c(C)nc3-c3ccccn3)c2cc1C(N)=O [Compound 22, 4-(5,6-Dimethyl-[2,2']bipyridin-3-yloxy)-7-methoxy-quinoline-6-carboxylic acid amide] |  |  | inhibition at 1 µM (test compound 1 µM, TGFβ-1 2 ng/ml, 4 hr, Table 1A): 81%; inhibition at 3 µM [1]: 99%
COc1cc2c(Oc3cc(C)c(C)nc3-c3ccc(C)cn3)ccnc2cc1OCCCl [Compound r466] | 99% | 100% | 
COc1cc2nccc(Oc3cc(C)c(C)nc3-c3ccccn3)c2cc1OCCO [Compound 144, 2-[4-(5,6-Dimethyl-[2,2']bipyridinyl-3-yloxy)-7-methoxy-quinolin-6-yloxy]-ethanol] |  |  | inhibition at 3 µM [1]: 93%; inhibition at 10 µM [4]: 100%
COc1cc2nccc(Oc3cc(C)c(C)nc3-c3nc(C)c(C)s3)c2cc1OC [Compound r260, 4-[2-(4,5-Dimethylthiazol-2-yl)-5,6-dimethyl-pyridin-3-yloxy]-6,7-dimethoxy-quinoline] | 96% | 100% | 
COc1cc2nccc(Oc3ccc4ccccc4c3C(C)=O)c2cc1OC [r42] |  |  | inhibition at 3 µM [5]: 90%; inhibition at 10 µM [6]: 93%
COc1cc2c(Oc3cc4ccccc4nc3C(C)=O)ccnc2cc1OCCN1CCCC(O)C1 (stereo not drawn) [Compound r393] | 100% |  | 
COc1cc2nccc(Oc3cc(C(C)(C)C)c(OC)cc3C(C)=O)c2cc1OC [Compound r185] | 11% | 59% | 
COc1cc2nccc(Oc3cccnc3OC3CCCC3)c2cc1OC [Compound r204, 4-(2-Cyclopentyloxy-pyridin-3-yloxy)-6,7-dimethoxy-quinoline] | 14% | 77% | 
COc1cc2c(Oc3cc4ccccc4nc3C)ccnc2cc1CCCO [Compound r411] | 50% | 85% | 
COc1cc2nccc(Oc3cc(C)c(C)nc3-c3ccccn3)c2cc1O [Compound 141, 4-(5,6-Dimethyl-[2,2']bipyridinyl-3-yloxy)-7-methoxy-quinolin-6-ol] |  |  | inhibition at 3 µM [1]: 100%; inhibition at 10 µM [4]: 100%
CCOC(=O)c1cc2cc(Oc3ccnc4cc(OC)c(OC)cc34)ccc2[nH]1 [Compound r22] |  |  | inhibition at 3 µM [5]: 11%; inhibition at 10 µM [6]: 81%
Cc1cc(Oc2ccnc3ccc(OCCO)cc23)c(-c2ccccn2)nc1C [Compound 142, 2-[4-(5,6-Dimethyl-[2,2']bipyridinyl-3-yloxy)-quinolin-6-yloxy]-ethanol] |  |  | inhibition at 3 µM [1]: 98%; inhibition at 10 µM [4]: 100%
COc1cc2nccc(Oc3cc4ccccc4cc3C(=O)Oc3ccccc3)c2cc1OC [Compound r102] |  |  | inhibition at 3 µM [5]: 33%; inhibition at 10 µM [6]: 95%
CCc1ccc(Oc2ccnc3ccc(OCCNS(C)(=O)=O)cc23)c(-c2ncccn2)n1 [Compound 203, N-{2-[4-(6-Ethyl-2-pyrimidin-2-yl-pyridin-3-yloxy)-quinolin-6-yloxy]-ethyl}-methanesulfonic acid amide] |  |  | inhibition at 3 µM [1]: 79%
Cc1ccc(-c2nc(C)c(C)cc2Oc2ccnc3cc(Cl)ccc23)nc1 [Compound r432] | 99% | 100% | 
COC(=O)COc1cc2nccc(Oc3cc4ccccc4nc3C)c2cc1OC [Compound r371] | 28% | 90% | 
COc1cc2c(Oc3cc(C)c(C)nc3-c3cccnc3)ccnc2cc1OCCCCO [Compound r444] | 100% |  | 
COc1cc2c(Oc3cc4cnccc4nc3C)ccnc2cc1OCC(O)CO (stereo not drawn) [Compound r408] | 38% | 79% | 
COc1cc2c(Oc3cc(C)c(C)nc3-c3cccnc3)ccnc2cc1OCCCO [Compound r347] | 100% |  | 
COc1cc2c(Oc3cc4ccccc4nc3C)ccnc2cc1OCCCO [Compound r382] | 100% | 100% | 
COc1cc2c(Oc3cc(C)c(C)nc3-c3ccc(C)cn3)ccnc2cc1O [Compound r453] | 72% | 98% | 

SMILES | inhibition at 3 µM [2] | inhibition at 10 µM [3] | further results
COc1cc2nccc(Oc3cc(C)c(C)nc3-c3ccccn3)c2cc1-c1cccnc1 [Compound 155, 3-(7-Methoxy-6-pyridin-3-yl-quinotin-4-yloxy)-5,6-dimethyl-[2,2']bipyridine] |  |  | inhibition at 3 µM [1]: 99%; inhibition at 10 µM [4]: 100%
COc1cc2nccc(Oc3ccc(Cl)cc3C(=O)Nc3ccc(Cl)c(Cl)c3)c2cc1OC [Compound r107] |  |  | inhibition at 3 µM [5]: 0%; inhibition at 10 µM [6]: 82%
CCCCc1ccc(Oc2ccnc3cc(OC)c(OC)cc23)c(C(C)=O)c1 [r174] | 57% | 96% | 
COc1cc2nccc(Oc3ccc(C)nc3-c3ccc(N(C)C)cc3)c2cc1OC [Compound r247] | 93% | 100% | 
COc1cc2c(Oc3cc(C)c(C)nc3-c3ccccc3)ccnc2cc1OCc1ccccc1 [Compound r331] | 73% | 90% | 
COc1cc2c(Oc3cc4cccnc4nc3C)ccnc2cc1OCCN1CCOCC1 [Compound r441] | 97% | 100% | 
Cc1cc(Oc2ccnc3ccc(-c4cccc(O)c4)cc23)c(-c2ccccn2)nc1C [Compound 11, 3-[4-(5,6-Dimethyl-[2,2']bipyridin-3-yloxy)-quinolin-6-yl]-phenol] |  |  | inhibition at 3 µM [1]: 100%; inhibition at 10 µM [4]: 100%
COc1cc2c(Oc3cc4ccccc4nc3C)ccnc2cc1OCCCn1ccnc1 [Compound r381] | 100% | 100% | 
COC(=O)c1ccc2c(Oc3cc4cccnc4nc3-c3ccccc3)ccnc2c1 [Compound 113, Methyl 4-(2-Phenyl-[1,8]naphthyridin-3-yloxy)-quinoline-7-carboxarlate] |  |  | inhibition at 3 µM [1]: 95%; inhibition at 10 µM [4]: 100%
COc1cc2c(Oc3cc4cccnc4nc3C)ccnc2cc1OCC(CO)CO [Compound r404] | 29% | 72% | 
COc1cc2c(Oc3cc4ccccc4nc3C(C)=O)ccnc2cc1OCC1CO1 (stereo not drawn) [Compound r394] | 83% | 100% | 
COc1cc2nccc(Oc3cccc4ccccc34)c2cc1OC [Compound r16] |  |  | inhibition at 3 µM [5]: 0%; inhibition at 10 µM [6]: 62%
CCOC(=O)c1cc(F)ccc1Sc1ccnc2cc(OC)c(OC)cc12 [Compound r419] | 7% | 67% | 
COc1cc2nccc(Oc3cc4ccccc4nc3-c3ccccn3)c2cc1OC [r287] | 100% | 100% | 
COc1ccc(Oc2ccnc3cc(OC)c(OC)cc23)c(C(=O)c2nccs2)c1 [r192] | 79% | 99% | 
COc1cc2c(Oc3cc4ccccc4nc3C(C)=O)ccnc2cc1OCCO [Compound r392] | 93% | 100% | 
COc1cc2c(Oc3cc(C)c(C)nc3-c3cccc(C)n3)ccnc2cc1OCCCO [Compound r447] | 94% | 100% | 
CCC(=O)c1cc(Cl)ccc1Oc1ccnc2cc(OC)c(OC)cc12 [r46] |  |  | inhibition at 3 µM [5]: 70%; inhibition at 10 µM [6]: 100%
COc1cc2nccc(Oc3cc4ccccc4nc3C(C)=O)c2cc1OC [Compound r278, 1-[3-(6,7-Dimethoxy-quinolin-4-yloxy)-quinolin-2-yl]-ethanone] | 90% | 99% | 
COc1cc2c(Oc3ccc(C)cc3C(=O)c3ccccc3)ccnc2cc1OCCCCN1CCC(N2CCCCC2)CC1 [Compound r146] |  |  | inhibition at 3 µM [5]: 64%; inhibition at 10 µM [6]: 100%
